Key:
potassium arsenate = compound: O=[As]([O-])(O)O.[K+] [potassium arsenate]; assay: thermal stability z-score vs DMSO; higher = more thermally stabilized by treatment; settings: HeLa; arsenate concentration 1 mM
Method: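 Cellular thermal proteome profiling in HeLa cells treated with 1 mM arsenate for 1 h (DMSO pretreatment), heated to ten temperatures (37-66.3 °C). Soluble protein was quantified by TMT mass spectrometry relative to DMSO controls; the thermal stability score was transformed to a z-score; mean of n = 3 experiments.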

lipoamide = compound: NC(=O)CCCCC1CCSS1 [lipoamide]; assay: as above; settings: HeLa, lipoamide concentration 100 µM
Method: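 Cellular thermal proteome profiling in HeLa cells. Cells were treated with 100 µM lipoamide for 1 h, with or without 1 mM arsenate for a further 1 h, then heated to ten temperatures (37-66.3 °C), and soluble protein was quantified by TMT mass spectrometry relative to 0.1% DMSO controls. The thermal stability score (sum of log2 fold changes minus the abundance score) was transformed to a z-score; mean of n = 3 experiments.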

[1] = arsenate co-treatment: 1 mM arsenate 1 h
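Further: each temperature applied for 3 min, abundance score taken as mean log2 fold change at the two lowest temperatures, z-score obtained by mean subtraction and division by SD.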

Chain of UniProt Q9Y530 (Q9Y530 whole entry): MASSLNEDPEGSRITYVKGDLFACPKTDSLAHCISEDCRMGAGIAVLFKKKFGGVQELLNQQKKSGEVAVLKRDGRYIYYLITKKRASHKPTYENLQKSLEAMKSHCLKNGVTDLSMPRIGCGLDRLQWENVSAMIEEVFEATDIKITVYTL
Chain of UniProt O15294 (O15294 whole entry): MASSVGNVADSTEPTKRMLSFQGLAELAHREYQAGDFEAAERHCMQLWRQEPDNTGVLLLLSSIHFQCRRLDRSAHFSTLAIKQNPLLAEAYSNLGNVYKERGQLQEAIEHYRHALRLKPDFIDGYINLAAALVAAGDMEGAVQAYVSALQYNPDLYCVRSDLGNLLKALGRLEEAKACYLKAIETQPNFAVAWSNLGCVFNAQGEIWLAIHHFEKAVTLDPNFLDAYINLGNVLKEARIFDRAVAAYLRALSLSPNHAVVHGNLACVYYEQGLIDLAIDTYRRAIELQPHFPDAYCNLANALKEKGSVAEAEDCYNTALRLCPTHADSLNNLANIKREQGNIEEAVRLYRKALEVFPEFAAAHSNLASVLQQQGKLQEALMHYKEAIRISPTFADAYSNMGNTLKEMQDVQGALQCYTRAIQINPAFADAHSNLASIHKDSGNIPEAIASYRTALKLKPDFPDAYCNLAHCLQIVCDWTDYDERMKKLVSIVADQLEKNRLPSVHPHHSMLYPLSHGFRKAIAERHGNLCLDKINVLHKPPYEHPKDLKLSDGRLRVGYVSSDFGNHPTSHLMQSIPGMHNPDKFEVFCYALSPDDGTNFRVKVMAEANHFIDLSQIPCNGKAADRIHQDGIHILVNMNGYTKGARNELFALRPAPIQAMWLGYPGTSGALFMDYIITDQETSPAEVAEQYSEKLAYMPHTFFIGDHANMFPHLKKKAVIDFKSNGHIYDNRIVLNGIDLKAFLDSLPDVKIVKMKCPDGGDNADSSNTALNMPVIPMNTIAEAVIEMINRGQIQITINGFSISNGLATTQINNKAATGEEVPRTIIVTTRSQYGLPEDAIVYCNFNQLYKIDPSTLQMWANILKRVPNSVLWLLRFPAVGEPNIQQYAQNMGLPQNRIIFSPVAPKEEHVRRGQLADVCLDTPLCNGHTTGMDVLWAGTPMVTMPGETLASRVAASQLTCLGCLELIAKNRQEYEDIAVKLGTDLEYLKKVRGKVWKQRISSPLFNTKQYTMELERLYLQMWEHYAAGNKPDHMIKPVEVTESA
Chain of UniProt Q13416 (Q13416 whole entry): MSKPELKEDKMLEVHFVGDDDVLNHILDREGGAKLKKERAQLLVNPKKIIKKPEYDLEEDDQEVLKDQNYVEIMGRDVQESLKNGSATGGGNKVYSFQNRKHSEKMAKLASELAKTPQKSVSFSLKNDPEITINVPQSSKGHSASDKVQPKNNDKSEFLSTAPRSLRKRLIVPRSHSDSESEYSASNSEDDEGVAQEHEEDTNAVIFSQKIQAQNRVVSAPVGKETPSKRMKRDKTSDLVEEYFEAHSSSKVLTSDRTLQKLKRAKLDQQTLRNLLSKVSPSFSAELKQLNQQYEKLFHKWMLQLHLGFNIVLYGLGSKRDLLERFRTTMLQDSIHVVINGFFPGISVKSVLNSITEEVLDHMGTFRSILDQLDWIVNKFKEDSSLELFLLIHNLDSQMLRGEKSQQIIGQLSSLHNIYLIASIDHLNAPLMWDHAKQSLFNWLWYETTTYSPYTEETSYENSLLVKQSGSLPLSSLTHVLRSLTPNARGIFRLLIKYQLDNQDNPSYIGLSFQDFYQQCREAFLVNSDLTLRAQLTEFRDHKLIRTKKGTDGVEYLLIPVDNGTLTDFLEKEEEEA
Chain of UniProt O75665 (O75665 whole entry): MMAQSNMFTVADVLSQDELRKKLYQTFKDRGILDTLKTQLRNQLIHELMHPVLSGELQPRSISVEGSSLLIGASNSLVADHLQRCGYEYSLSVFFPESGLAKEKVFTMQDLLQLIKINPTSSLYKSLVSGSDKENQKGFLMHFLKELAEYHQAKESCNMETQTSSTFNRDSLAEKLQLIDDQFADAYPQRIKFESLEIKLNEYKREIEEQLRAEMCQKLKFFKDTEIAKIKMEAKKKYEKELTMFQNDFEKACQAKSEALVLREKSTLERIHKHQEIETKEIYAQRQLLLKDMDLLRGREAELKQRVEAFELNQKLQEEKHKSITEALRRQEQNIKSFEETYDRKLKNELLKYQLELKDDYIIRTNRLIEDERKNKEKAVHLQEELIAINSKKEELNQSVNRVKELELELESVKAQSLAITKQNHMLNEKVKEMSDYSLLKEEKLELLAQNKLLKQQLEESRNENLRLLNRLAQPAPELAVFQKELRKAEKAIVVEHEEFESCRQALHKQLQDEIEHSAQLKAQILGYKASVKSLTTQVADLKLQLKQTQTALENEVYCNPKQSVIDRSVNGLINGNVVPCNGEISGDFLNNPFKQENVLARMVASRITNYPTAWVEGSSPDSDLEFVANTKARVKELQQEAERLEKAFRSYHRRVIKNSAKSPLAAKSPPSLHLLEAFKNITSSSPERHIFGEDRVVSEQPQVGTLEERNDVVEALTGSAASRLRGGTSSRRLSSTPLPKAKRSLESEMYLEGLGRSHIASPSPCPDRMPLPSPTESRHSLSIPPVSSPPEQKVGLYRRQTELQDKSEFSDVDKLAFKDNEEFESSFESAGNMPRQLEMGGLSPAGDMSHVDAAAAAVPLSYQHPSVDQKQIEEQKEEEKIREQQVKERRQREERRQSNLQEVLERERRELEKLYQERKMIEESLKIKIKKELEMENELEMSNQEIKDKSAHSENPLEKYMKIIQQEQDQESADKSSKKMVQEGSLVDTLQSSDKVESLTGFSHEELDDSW
Chain of UniProt P04181 (P04181 whole entry): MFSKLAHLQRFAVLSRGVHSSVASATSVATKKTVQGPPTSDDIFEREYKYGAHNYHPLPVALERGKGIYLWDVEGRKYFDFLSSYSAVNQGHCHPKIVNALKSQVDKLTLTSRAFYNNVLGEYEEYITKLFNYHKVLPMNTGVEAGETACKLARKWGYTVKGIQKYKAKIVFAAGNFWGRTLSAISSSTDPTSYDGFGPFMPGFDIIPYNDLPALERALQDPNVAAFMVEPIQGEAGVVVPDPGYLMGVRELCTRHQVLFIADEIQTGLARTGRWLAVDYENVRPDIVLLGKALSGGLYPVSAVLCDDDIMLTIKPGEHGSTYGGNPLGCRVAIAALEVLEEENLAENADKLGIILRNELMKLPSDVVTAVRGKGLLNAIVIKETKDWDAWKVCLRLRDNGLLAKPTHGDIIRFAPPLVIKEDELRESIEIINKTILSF
Chain of UniProt Q5SRE5 (Q5SRE5 whole entry): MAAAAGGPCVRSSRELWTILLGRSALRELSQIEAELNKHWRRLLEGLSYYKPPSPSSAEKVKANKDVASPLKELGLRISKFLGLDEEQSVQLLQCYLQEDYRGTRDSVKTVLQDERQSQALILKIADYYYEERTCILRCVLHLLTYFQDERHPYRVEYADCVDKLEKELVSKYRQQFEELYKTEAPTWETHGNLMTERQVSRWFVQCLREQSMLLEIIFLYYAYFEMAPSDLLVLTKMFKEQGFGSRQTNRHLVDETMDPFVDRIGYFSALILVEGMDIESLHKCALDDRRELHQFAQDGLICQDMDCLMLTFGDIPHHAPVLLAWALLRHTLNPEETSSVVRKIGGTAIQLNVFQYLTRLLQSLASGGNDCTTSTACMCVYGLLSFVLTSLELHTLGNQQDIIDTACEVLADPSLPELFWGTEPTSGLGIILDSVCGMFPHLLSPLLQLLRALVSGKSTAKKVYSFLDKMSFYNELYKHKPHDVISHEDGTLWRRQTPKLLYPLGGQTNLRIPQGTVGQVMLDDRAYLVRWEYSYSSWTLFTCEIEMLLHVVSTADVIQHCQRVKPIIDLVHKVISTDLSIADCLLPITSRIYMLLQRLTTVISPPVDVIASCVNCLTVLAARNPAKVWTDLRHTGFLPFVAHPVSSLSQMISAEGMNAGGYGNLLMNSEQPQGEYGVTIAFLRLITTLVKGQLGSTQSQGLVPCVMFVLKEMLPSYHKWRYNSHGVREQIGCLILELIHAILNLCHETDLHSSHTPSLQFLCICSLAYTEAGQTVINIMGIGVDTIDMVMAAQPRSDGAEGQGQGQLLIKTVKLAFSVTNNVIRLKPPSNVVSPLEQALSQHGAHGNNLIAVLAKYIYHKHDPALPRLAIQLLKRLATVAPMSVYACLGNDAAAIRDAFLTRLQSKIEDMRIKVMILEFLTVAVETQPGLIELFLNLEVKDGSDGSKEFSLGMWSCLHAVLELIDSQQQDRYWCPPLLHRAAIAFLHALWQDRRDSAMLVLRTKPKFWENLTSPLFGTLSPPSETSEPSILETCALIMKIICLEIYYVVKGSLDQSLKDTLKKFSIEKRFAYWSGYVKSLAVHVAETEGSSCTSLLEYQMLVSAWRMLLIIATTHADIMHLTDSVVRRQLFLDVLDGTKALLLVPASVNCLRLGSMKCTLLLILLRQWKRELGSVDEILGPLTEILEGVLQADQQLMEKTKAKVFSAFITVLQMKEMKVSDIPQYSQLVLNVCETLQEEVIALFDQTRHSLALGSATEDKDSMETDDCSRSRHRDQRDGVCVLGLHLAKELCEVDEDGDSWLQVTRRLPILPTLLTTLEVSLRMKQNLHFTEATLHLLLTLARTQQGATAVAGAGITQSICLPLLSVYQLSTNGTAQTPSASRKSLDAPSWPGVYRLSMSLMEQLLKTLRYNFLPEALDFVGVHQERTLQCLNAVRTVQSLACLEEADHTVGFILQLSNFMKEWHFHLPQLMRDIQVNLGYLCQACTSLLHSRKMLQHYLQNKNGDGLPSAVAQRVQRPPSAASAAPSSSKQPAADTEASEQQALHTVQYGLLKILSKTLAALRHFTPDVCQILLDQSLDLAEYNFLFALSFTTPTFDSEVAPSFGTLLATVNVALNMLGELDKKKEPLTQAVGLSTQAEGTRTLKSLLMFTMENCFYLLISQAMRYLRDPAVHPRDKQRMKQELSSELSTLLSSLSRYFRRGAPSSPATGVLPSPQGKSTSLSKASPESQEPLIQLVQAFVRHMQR

Target | thermal stability z-score (potassium arsenate) | thermal stability z-score (lipoamide; [1]) | thermal stability z-score (lipoamide; arsenate co-treatment: none)
NUP155 (UniProt O75694) | 0.275 | -0.814 | -0.769
NUP160 (UniProt Q12769) | 1.01 | 0.198 | 0.123
NUP188 (UniProt Q5SRE5) | 0.426 | -0.451 | -0.512
NUP205 (UniProt Q92621) | 1.05 | -0.769 | -0.572
NUP210 (UniProt Q8TEM1) | 0.685 | -0.954 | -1.03
NUP214 (UniProt P35658) | 0.815 | -0.0103 | -0.132
NUS1 (UniProt Q96E22) | 0.015 | 0.421 | 0.252
NUSAP1 (UniProt Q9BXS6) | 0.758 | 0.43 | 0.187
NUTF2 (UniProt P61970) | -0.609 | 0.312 | 0.256
NVL (UniProt O15381) | 0.0113 | -0.0288 | -0.0652
NXF1 (UniProt Q9UBU9) | -0.127 | 0.0906 | 0.0765
NXN (UniProt Q6DKJ4) | 0.314 | 0.0765 | 0.152
OARD1 (UniProt Q9Y530) | -0.793 | 0.407 | 0.708
OAS1 (UniProt P00973) | -0.247 | -0.156 | 0.0182
OAS3 (UniProt Q9Y6K5) | -0.07 | -0.0852 | 0.257
OASL (UniProt Q15646) | -0.307 | -0.147 | -0.0704
OAT (UniProt P04181) | 3.08 | -0.684 | -0.588
OBSL1 (UniProt O75147) | -0.307 | -0.175 | -0.0603
OCIAD1 (UniProt Q9NX40) | -0.448 | 0.0741 | -0.143
OCIAD2 (UniProt Q56VL3) | 0.549 | 0.194 | 0.205
OCRL (UniProt Q01968) | 0.24 | 0.142 | 0.13
ODC1 (UniProt P11926) | 0.106 | 0.0303 | 0.354
ODF2 (UniProt Q5BJF6) | -0.129 | 0.0591 | 0.0281
ODR4 (UniProt Q5SWX8) | 0.137 | -0.0304 | 0.112

Target | thermal stability z-score (potassium arsenate) | thermal stability z-score (lipoamide; [1]) | thermal stability z-score (lipoamide; arsenate co-treatment: none)
OFD1 (UniProt O75665) | -0.000259 | -0.239 | 0.0566
OGDH (UniProt Q02218) | -0.531 | 0.182 | 0.151
OGFOD1 (UniProt Q8N543) | 1.04 | 0.312 | -0.342
OGFOD3 (UniProt Q6PK18) | -0.0712 | 0.0324 | -0.274
OGFR (UniProt Q9NZT2) | 1.72 | 0.681 | 0.943
OGT (UniProt O15294) | 0.254 | -0.039 | -0.08
OLA1 (UniProt Q9NTK5) | -0.463 | 0.522 | 0.49
OLR1 (UniProt P78380) | 0.938 | -0.828 | -0.797
OMA1 (UniProt Q96E52) | -0.431 | -0.791 | -1.46
OPA1 (UniProt O60313) | 0.749 | -0.697 | -0.456
OPA3 (UniProt Q9H6K4) | 0.247 | 1.42 | 0.732
OPHN1 (UniProt O60890) | 0.0261 | -0.0389 | 0.0614
OPLAH (UniProt O14841) | -0.0405 | -0.0343 | 0.0614
OPTN (UniProt Q96CV9) | 1.01 | -0.94 | -0.477
ORC2 (UniProt Q13416) | 0.0824 | 0.0753 | 0.0589
ORC3 (UniProt Q9UBD5) | -0.00481 | -0.0418 | -0.104
ORC4 (UniProt O43929) | -0.113 | -0.121 | -0.0936
ORC5 (UniProt O43913) | -0.065 | -0.0478 | 0.0761
ORC6 (UniProt Q9Y5N6) | -1.11 | -0.246 | -0.0524
OS9 (UniProt Q13438) | 0.706 | -3.59 | -3.15
OSBP2 (UniProt Q969R2) | -0.124 | 0.192 | 0.026
OSBP (UniProt P22059) | -1.62 | 0.983 | 0.414
OSBPL1A (UniProt Q9BXW6) | 0.355 | -1.13 | 0.611
OSBPL2 (UniProt Q9H1P3) | -0.0657 | -0.0428 | 0.0817

Target | thermal stability z-score (potassium arsenate) | thermal stability z-score (lipoamide; [1]) | thermal stability z-score (lipoamide; arsenate co-treatment: none)
OSBPL3 (UniProt Q9H4L5) | -0.969 | -1.67 | -0.909
OSBPL5 (UniProt Q9H0X9) | -0.386 | -0.28 | -0.534
OSBPL8 (UniProt Q9BZF1) | -0.00618 | -1.47 | -1.21
OSBPL9 (UniProt Q96SU4) | 0.219 | -0.647 | -0.627
OSBPL10 (UniProt Q9BXB5) | -1.41 | -1.14 | -0.711
OSBPL11 (UniProt Q9BXB4) | 0.989 | -0.766 | -0.267
OSGEP (UniProt Q9NPF4) | -0.208 | -0.0754 | 0.487
OSGEPL1 (UniProt Q9H4B0) | -0.494 | 0.0734 | -0.263
OSMR (UniProt Q99650) | 1.55 | -1.48 | -0.64
OSTF1 (UniProt Q92882) | 0.00115 | -0.217 | 0.551
OTUB1 (UniProt Q96FW1) | -0.468 | 0.513 | 0.823
OTUD4 (UniProt Q01804) | 0.258 | 0.168 | 0.183
OTUD5 (UniProt Q96G74) | 1.72 | -0.721 | 0.294
OTUD6B (UniProt Q8N6M0) | 0.0655 | 0.504 | -0.85
OTUD7B (UniProt Q6GQQ9) | 0.0572 | 0.194 | 0.173
OTULIN (UniProt Q96BN8) | -0.452 | -0.269 | -0.186
OVCA2 (UniProt Q8WZ82) | -0.0892 | -0.0187 | 0.0328
OXA1L (UniProt Q15070) | -0.251 | -0.709 | -0.369
OXCT1 (UniProt P55809) | -1.12 | -0.159 | -0.108
OXNAD1 (UniProt Q96HP4) | -0.691 | 0.221 | 0.451
OXR1 (UniProt Q8N573) | 0.101 | 0.209 | 0.17
OXSM (UniProt Q9NWU1) | 0.51 | -0.024 | 0.0818
OXSR1 (UniProt O95747) | -0.408 | 0.903 | 0.68
P3H1 (UniProt Q32P28) | 1.2 | -4.35 | -3.23
